Data as given in patent US20050238655A1, “Antiviral activity from medicinal mushrooms” (priority 2004, published 2005).

Experiments:
Vaccinia = type: cell-based
Cowpox = type: cell-based

## Nc1ccn(C[C@@H](CO)OCP(=O)(O)O)c(=O)n1 [CDV]
Vaccinia
  PR CDV EC90: 17 µg/mL
Cowpox
  PR CDV EC90: 18.1 µg/mL
